# Key:
# [1] = biological target: human adenosine receptor sub-type A2a (wild type) (Homo sapiens (Human), UniProt P29274); test: Affinity for human adenosine A2a receptor by surface plasmon resonance (SPR); format: binding
# Experimental: (§1) Affinity for the human adenosine receptor sub-types (A2a, A2b, A1 and A3) was determined by surface plasmon resonance (SPR) using published methodologies (see below for further details).
# (§2) Affinity for the human adenosine receptor sub-types (A2a, A2b, A1 and A3) was determined by SPR as described in Aristotelous, T., et al, Methods in Enzymology (2015), Volume 556, Chapter 23, pages 499-525 and Congreve, M., et al, J Med Chem (2012), Vol. 55, pages 1898-1903. The method used was analogous to the method used in Congreve, M., et al (see supplementary page S10) for the A2a receptor, but the wild type receptor was used rather than the proprietary StaR form.
# [2] = biological target: human A2a receptors (HEK 293 transfected) (Homo sapiens (Human), UniProt P29274); test: Inhibition of cAMP release in HEK-A2aR cells (HTRF, LANCE Ultra cAMP); format: cell-based; conditions: 3 nM NECA, 10 min
# Experimental: Functional activity was measured by inhibition of cAMP release in HEK cells (see below for further details).
# To screen A2a receptor inhibitors by HTRF technology, about 500 HEK-A2aR cells (HEK 293 transfected with human A2a receptors) were treated with inhibitors in presence of stimulation buffer (1×HBSS, 5 mM HEPES, 0.1% BSA stabilizer, pH 7.4) supplemented with 30 μM phosphodiesterase inhibitor Rolipram (to prevent cAMP degradation). This stimulation was immediately followed by treatment with 3 nM standard A2aR agonist (NECA) for 10 min under gentle shaking at room temperature. After that, inhibition of cAMP release was determined directly using LANCE Ultra cAMP assay (Perkin Elmer TRF0263).
# All analysis was performed using GraphPad Prism 7.0 (GraphPad Software, San Diego, USA). Results are given, as EC50 (M).
# [3] = biological target: human adenosine receptor sub-type A2b (Homo sapiens (Human), UniProt P29275); test: Affinity for human adenosine A2b receptor by SPR; format: binding; conditions: for IC50: SPR, human A2b receptor; for Relative selectivity for A2a v. A2b: from SPR IC50 values, rounded to 2 significant figures
# Experimental: as §1, §2
# [4] = biological target: human adenosine receptor sub-type A1 (Homo sapiens (Human), UniProt P30542); test: Affinity for human adenosine A1 receptor by SPR; format: binding; conditions: for IC50: SPR, human A1 receptor; for Relative selectivity for A2a v. A1: from SPR IC50 values, rounded to 2 significant figures
# Experimental: as §1, §2
# [5] = biological target: human adenosine receptor sub-type A3 (Homo sapiens (Human), UniProt P0DMS8); test: Affinity for human adenosine A3 receptor by SPR; format: binding; conditions: for Relative selectivity for A2a v. A3: from SPR IC50 values, rounded to 2 significant figures
# Experimental: as §1, §2
# [6] = system: human primary CD3+ T-cells; test: Recovery of 2-chloroadenosine (CADO) mediated inhibition of IL-2 production; format: cell-based; conditions: T-cell, two donors, 10 μM CADO, 48 hours
# Experimental: CD3^+ cells were isolated from Buffy Coat of two human healthy donors (Donor 1: D1 and Donor 2: D2) with the RosetteSep technology (RosetteSep Human T cell enrichment cocktail from Stem Cell) according to provider's instructions. T-cells were then stimulated with anti-CD3 mAb, anti-CD28 mAb coated beads (Dynabeads® Human T-Activator CD3/CD28 (Thermo Fisher Scientific) in a complete medium containing 10% fetal bovine serum in the presence or not of Example 1. After one hour incubation time, CADO (2-chloroadenosine, Abcam Biochemical) at 10 μM was added to the culture. After 48 hours of stimulation at 37° C., 5% CO2 and a short centrifugation, culture supernatant were harvested and stored at −80° C. for further evaluation by ELISA. In the meantime, a staining with a living dye was performed to access compound-induced toxicity. Il-2 measurement was performed by using the Human IL-2 Uncoated ELISA (Invitrogen) following data sheet instructions. To access the percentage of IL-2 inhibition induced by 10 μM CADO, the calculation used control condition (cells stimulated in basal condition). Then to access compound-induced recovery of IL-2 production, each dose was normalized following this formula: ([sample]−[mean of CADO])/([mean of basal condition]−[mean of CADO])*100. Compounds normalization was performed per plate. […]
# [7] = system: MCA-205 tumor; test: Inhibition of the growth of MCA-205 tumor in syngeneic mice; format: in vivo, mouse; conditions: 30 mg/kg BID oral gavage, 11 consecutive days from day 10; day 19 to study termination; p<0.005 and p<0.001
# Experimental: C57/BI6JRjJL female mice (9-10 weeks old from Janvier Laboratories) were engrafted in subcutaneous location with 0.25.10^6 MCA-205 cells (suspended in 100% PBS buffer, fibrosarcoma cell line kindly provided by Dr. J. Stagg, Universite de Montréal, Canada). Mice were then kept in a post-operative cabinet at 28° C. until complete recovery.
# Randomization of mice was performed on day 9 post-cell inoculation, after measurement of tumour volumes using a digital caliper. Assuming an ovoid form of the tumour, the following formula was applied: Volume=0.52×(width)^2×length. Width and length were expressed in mm, volume in mm^3. Twenty-six female mice were allocated in two groups: vehicle and Example 1 (n=13 mice/group). Oral gavage with vehicle (control group, PEG200/Soluplus 10% in Citrate Buffer pH3 at 50 mM (50%/50% w/v)) or Example 1 solubilized in the vehicle at 30 mg/kg in BID (twice daily administrations by oral gavage with a volume of administration of 5 ml/kg) was initiated 10 days after cell inoculation and continued for 11 consecutive days.
# [8] = Solubility; format: physicochemical; conditions: water (or specific buffer), thermodynamic from solid, overnight stirring at ambient temperature, LC-UV
# Excerpt: The test compound in solid form was suspended in water (or specific buffer). After overnight stirring at ambient temperature protected from light, suspensions were filtered. An aliquot of the resulting supernatant was quantified using LC-UV method against a reference solution in DMSO obtained by preparation from powder.
# Sequence of human adenosine receptor sub-type A3 (P0DMS8 whole entry): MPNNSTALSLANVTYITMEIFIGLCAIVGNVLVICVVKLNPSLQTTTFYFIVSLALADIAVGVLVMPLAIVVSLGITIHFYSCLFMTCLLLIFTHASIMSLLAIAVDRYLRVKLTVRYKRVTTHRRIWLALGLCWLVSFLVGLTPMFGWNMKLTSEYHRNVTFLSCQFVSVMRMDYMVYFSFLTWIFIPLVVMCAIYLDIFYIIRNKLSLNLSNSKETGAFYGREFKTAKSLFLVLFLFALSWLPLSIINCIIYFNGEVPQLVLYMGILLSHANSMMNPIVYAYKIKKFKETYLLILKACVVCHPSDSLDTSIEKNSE
# Sequence of human adenosine receptor sub-type A2a (wild type) (P29274 whole entry): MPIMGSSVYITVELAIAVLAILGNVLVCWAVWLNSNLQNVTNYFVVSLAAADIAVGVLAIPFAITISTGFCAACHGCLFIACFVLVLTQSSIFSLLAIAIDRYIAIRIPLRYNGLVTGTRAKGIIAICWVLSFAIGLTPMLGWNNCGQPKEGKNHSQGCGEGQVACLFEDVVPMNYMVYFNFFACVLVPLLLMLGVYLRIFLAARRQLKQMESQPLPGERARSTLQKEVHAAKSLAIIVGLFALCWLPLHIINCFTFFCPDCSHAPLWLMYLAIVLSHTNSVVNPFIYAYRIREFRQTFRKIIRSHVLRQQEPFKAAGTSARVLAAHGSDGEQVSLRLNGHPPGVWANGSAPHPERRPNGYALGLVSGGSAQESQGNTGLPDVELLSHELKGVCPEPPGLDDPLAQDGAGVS
# Sequence of human A2a receptors (HEK 293 transfected) (P29274 whole entry): as above
# Sequence of human adenosine receptor sub-type A2b (P29275 whole entry): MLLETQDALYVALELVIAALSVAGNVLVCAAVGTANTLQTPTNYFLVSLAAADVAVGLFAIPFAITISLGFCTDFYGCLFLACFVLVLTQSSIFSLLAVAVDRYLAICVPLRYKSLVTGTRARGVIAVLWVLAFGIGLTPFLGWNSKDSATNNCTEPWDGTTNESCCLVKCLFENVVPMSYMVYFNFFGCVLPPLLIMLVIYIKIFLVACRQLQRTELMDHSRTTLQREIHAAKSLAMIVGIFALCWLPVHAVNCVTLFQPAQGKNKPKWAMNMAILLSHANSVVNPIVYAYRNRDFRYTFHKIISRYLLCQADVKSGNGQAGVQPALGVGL
# Sequence of human adenosine receptor sub-type A1 (P30542 whole entry): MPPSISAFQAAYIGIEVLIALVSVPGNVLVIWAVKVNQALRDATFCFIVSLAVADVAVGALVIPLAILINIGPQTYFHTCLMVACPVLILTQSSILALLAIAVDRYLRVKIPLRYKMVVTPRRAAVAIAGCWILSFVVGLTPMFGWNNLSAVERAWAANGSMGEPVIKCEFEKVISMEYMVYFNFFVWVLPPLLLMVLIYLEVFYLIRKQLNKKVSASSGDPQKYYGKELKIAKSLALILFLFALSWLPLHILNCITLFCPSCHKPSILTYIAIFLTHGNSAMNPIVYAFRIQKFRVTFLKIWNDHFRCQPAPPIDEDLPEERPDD
IC50 [1] [nM],EC50 [2] [nM],IC50 [3] [nM],Relative selectivity for A2a v. A2b [3],IC50 [4] [nM],Relative selectivity for A2a v. A1 [4],"IC50 ([5]; SPR, human A3 receptor) [nM]",Relative selectivity for A2a v. A3 [5],EC50 [6] [nM],"A3 SPR IC50 ([5]; SPR, human A3 receptor)",solubility [8] [µg/mL],Compound,mean tumor volume [7]
3.5,4,1500,430,3100,890,35800,10000,560,,,"Cc1cccc(Cn2cc3c(N)nc(-c4ccsn4)nc3n2)c1 [Example 1, 2-[(3-methylphenyl)methyl]-6-(1,2-thiazol-3-yl)-2H-pyrazolo[3,4-d]pyrimidin-4-amine]",significant inhibition of the mean tumor volume
5.6,84,1450,260,1180,210,,>10000,,Non-,> 5,"Cc1ccc(Cn2cc3c(N)nc(-c4ccsn4)nc3n2)cc1F [Example 19, 2-[(3-fluoro-4-methylphenyl)methyl]-6-(1,2-thiazol-3-yl)-2H-pyrazolo[3,4-d]pyrimidin-4-amine]",
4.2,60,530,130,290,69,4700,1100,,,> 10,"Nc1nc(-c2ccsn2)nc2nn(Cc3cccc(Cl)c3)cc12 [Example 35, 2-[(3-chlorophenyl)methyl]-6-(1,2-thiazol-3-yl)-2H-pyrazolo[3,4-d]pyrimidin-4-amine]",

# Source: US11786528B2, “Pyrazolopyrimidine compounds as adenosine receptor antagonists” (EXSCIENTIA LTD., priority 2018, dated 2023)
